In ChEMBL document CHEMBL5634104, “Identification of 1,3,4-oxadiazolyl-containing β-carboline derivatives as novel α-glucosidase inhibitors with antidiabetic activity” (Eur J Med Chem, 2023):
The source made the active and inactive calls. No cut-off for these calls is given here.

Assays:
[1] = target: T1, Alpha-glucosidase (Saccharomyces cerevisiae S288c, UniProt P53341+P38158+P07265); experiment: Inhibition of Saccharomyces cerevisiae Alpha-glucosidase using p-NPG as substrate and measured after 10 mins; type: protein assay
[2] = test system: Mus musculus; experiment: Anti-diabetic activity against streptozocin-induced C57/6J mouse diabetes model assessed as change in fasting blood glucose at 100 mg/kg/day, po and measured after 1 week; type: functional, organism-based; conditions: time 1.0 weeks
[3] = test system: Mus musculus; experiment: Anti-diabetic activity against streptozocin-induced C57/6J mouse diabetes model assessed as decrease in fasting blood glucose at 100 mg/kg/day, po and measured from 2 to 4 weeks; type: functional, organism-based; conditions: time 2-4 weeks
[4] = test system: Mus musculus; experiment: Anti-diabetic activity against streptozocin-induced C57/6J mouse diabetes model assessed as decrease in blood glucose level at 100 mg/kg/day, po administered for 25 days in presence of sucrose by OGTT assay; type: functional, organism-based; conditions: time 25.0 day
[5] = test system: Mus musculus; experiment: Antihyperlipidemic activity against streptozocin-induced C57/6J mouse assessed as decrease in total cholesterol level at 100 mg/kg/day, po administered for 4 weeks by automatic biochemical analyzer; type: functional, organism-based
[6] = test system: Mus musculus; experiment: Antihyperlipidemic activity against streptozocin-induced C57/6J mouse assessed as decrease in triglyceride level at 100 mg/kg/day, po administered for 4 weeks by automatic biochemical analyzer; type: functional, organism-based
[7] = target: T1, Alpha-glucosidase; experiment: Noncompetitive inhibition of Saccharomyces cerevisiae Alpha-glucosidase assessed as decrease in Vmax with constant Km using p-NPG as substrate by Lineweaver-Burk plot analysis; type: protein assay
[8] = test system: L02; experiment: Cytotoxicity against human L02 cells upto 32 uM; type: toxicity, cell-based; conditions: l02, 32 µM
[9] = test system: Mus musculus; experiment: Anti-diabetic activity against streptozocin-induced C57/6J mouse diabetes model assessed as change in fasting blood glucose at 50 mg/kg/day, po and measured after 1 week; type: functional, organism-based; conditions: time 1.0 weeks
[10] = test system: Mus musculus; experiment: Anti-diabetic activity against streptozocin-induced C57/6J mouse diabetes model assessed as decrease in fasting blood glucose at 50 mg/kg/day, po and measured from 2 to 4 weeks; type: functional, organism-based; conditions: time 2-4 weeks
[11] = test system: Mus musculus; experiment: Anti-diabetic activity against streptozocin-induced C57/6J mouse diabetes model assessed as decrease in blood glucose level at 50 mg/kg/day, po administered for 25 days in presence of sucrose by OGTT assay; type: functional, organism-based; conditions: time 25.0 day
[12] = test system: Mus musculus; experiment: Antihyperlipidemic activity against streptozocin-induced C57/6J mouse assessed as decrease in total cholesterol level at 50 mg/kg/day, po administered for 4 weeks by automatic biochemical analyzer; type: functional, organism-based
[13] = test system: Mus musculus; experiment: Antihyperlipidemic activity against streptozocin-induced C57/6J mouse assessed as decrease in triglyceride level at 50 mg/kg/day, po administered for 4 weeks by automatic biochemical analyzer; type: functional, organism-based

Row | Structure (SMILES) | IC50 [1] [µM] | other results
1 | Cc1ccccc1CSc1nnc(-c2cc3c([nH]c4ccccc43)c(-c3ccccc3)n2)o1 | 3.33 | –
2 | COC(=O)c1cccc(CSc2nnc(-c3cc4c([nH]c5ccccc54)c(-c4ccccc4)n3)o2)c1 | 4.93 | –
3 | CS(=O)(=O)c1ccc(CSc2nnc(-c3cc4c([nH]c5ccccc54)c(-c4ccccc4)n3)o2)cc1 | 6.15 | –
4 | Clc1cccc(CSc2nnc(-c3cc4c([nH]c5ccccc54)c(-c4ccccc4)n3)o2)c1 | 12.71 | –
5 | N#Cc1ccccc1CSc1nnc(-c2cc3c([nH]c4ccccc43)c(-c3ccccc3)n2)o1 | 10.57 | –
6 | N#Cc1ccc(CSc2nnc(-c3cc4c([nH]c5ccccc54)c(-c4ccccc4)n3)o2)cc1 | 10.36 | –
7 | c1ccc(-c2ccc(CSc3nnc(-c4cc5c([nH]c6ccccc65)c(-c5ccccc5)n4)o3)cc2)cc1 | 4.32 | –
8 | Brc1ccccc1CSc1nnc(-c2cc3c([nH]c4ccccc43)c(-c3ccccc3)n2)o1 | 6.97 | –
9 | Fc1cccc(CSc2nnc(-c3cc4c([nH]c5ccccc54)c(-c4ccccc4)n3)o2)c1 | 15.41 | –
10 | C[C@H]1O[C@H](O[C@H]2[C@H](O)[C@@H](O)[C@@H](O[C@H]3[C@H](O)[C@@H](O)C(O)O[C@@H]3CO)O[C@@H]2CO)[C@H](O)[C@@H](O)[C@@H]1N[C@H]1C=C(CO)[C@@H](O)[C@H](O)[C@H]1O (some centres undefined) | – | Activity [2]: inactive; Activity [3]: Active; Activity [4]: Active; Activity [5]: Active; Activity [6]: Active
11 | Cc1ccc(CSc2nnc(-c3cc4c([nH]c5ccccc54)c(-c4ccccc4)n3)o2)cc1 | 11.86 | –
12 | c1ccc(-c2ccccc2CSc2nnc(-c3cc4c([nH]c5ccccc54)c(-c4ccccc4)n3)o2)cc1 | 3.07 | Ki [7]: 1.22 µM; Activity [8]: Non-Toxic; Activity [9]: inactive; Activity [10]: Active; Activity [11]: Active; Activity [12]: Active; Activity [13]: Active
13 | Cc1cccc(CSc2nnc(-c3cc4c([nH]c5ccccc54)c(-c4ccccc4)n3)o2)c1 | 10.4 | –
14 | O=[N+]([O-])c1ccccc1CSc1nnc(-c2cc3c([nH]c4ccccc43)c(-c3ccccc3)n2)o1 | 9.57 | –
15 | c1ccc(CSc2nnc(-c3cc4c([nH]c5ccccc54)c(-c4ccccc4)n3)o2)cc1 | 15.49 | Ki [7]: 1.81 µM
16 | FC(F)(F)c1ccccc1CSc1nnc(-c2cc3c([nH]c4ccccc43)c(-c3ccccc3)n2)o1 | 10.59 | –
17 | FC(F)(F)c1cccc(CSc2nnc(-c3cc4c([nH]c5ccccc54)c(-c4ccccc4)n3)o2)c1 | 12.25 | –
18 | Brc1ccc(CSc2nnc(-c3cc4c([nH]c5ccccc54)c(-c4ccccc4)n3)o2)cc1 | 5.42 | –

Row | Structure (SMILES) | IC50 [1] [µM] | other results
19 | FC(F)(F)Oc1ccccc1CSc1nnc(-c2cc3c([nH]c4ccccc43)c(-c3ccccc3)n2)o1 | 10.64 | –
20 | N#Cc1cccc(CSc2nnc(-c3cc4c([nH]c5ccccc54)c(-c4ccccc4)n3)o2)c1 | 10.42 | –
21 | FC(F)(F)Oc1cccc(CSc2nnc(-c3cc4c([nH]c5ccccc54)c(-c4ccccc4)n3)o2)c1 | 10.93 | –
22 | Fc1ccccc1CSc1nnc(-c2cc3c([nH]c4ccccc43)c(-c3ccccc3)n2)o1 | 14.75 | –
23 | Fc1ccc(CSc2nnc(-c3cc4c([nH]c5ccccc54)c(-c4ccccc4)n3)o2)cc1 | 14.73 | –
24 | Fc1ccc(CSc2nnc(-c3cc4c([nH]c5ccccc54)c(-c4ccccc4)n3)o2)cc1F | 9.12 | –
25 | FC(F)(F)c1ccc(CSc2nnc(-c3cc4c([nH]c5ccccc54)c(-c4ccccc4)n3)o2)cc1 | 8.48 | –
26 | O=[N+]([O-])c1cccc(CSc2nnc(-c3cc4c([nH]c5ccccc54)c(-c4ccccc4)n3)o2)c1 | 5.76 | –
27 | COC(=O)c1ccc(CSc2nnc(-c3cc4c([nH]c5ccccc54)c(-c4ccccc4)n3)o2)cc1 | 4.6 | –
28 | Clc1ccc(CSc2nnc(-c3cc4c([nH]c5ccccc54)c(-c4ccccc4)n3)o2)cc1Cl | 9.66 | –
29 | Clc1ccc(CSc2nnc(-c3cc4c([nH]c5ccccc54)c(-c4ccccc4)n3)o2)cc1 | 5.31 | –
30 | COC(=O)c1ccccc1CSc1nnc(-c2cc3c([nH]c4ccccc43)c(-c3ccccc3)n2)o1 | 5.58 | –
31 | FC(F)(F)Oc1ccc(CSc2nnc(-c3cc4c([nH]c5ccccc54)c(-c4ccccc4)n3)o2)cc1 | 6.44 | –
32 | O=[N+]([O-])c1ccc(CSc2nnc(-c3cc4c([nH]c5ccccc54)c(-c4ccccc4)n3)o2)cc1 | 3.1 | Ki [7]: 2.86 µM
33 | Clc1ccccc1CSc1nnc(-c2cc3c([nH]c4ccccc43)c(-c3ccccc3)n2)o1 | 5.46 | –
34 | CC(C)(C)c1ccc(CSc2nnc(-c3cc4c([nH]c5ccccc54)c(-c4ccccc4)n3)o2)cc1 | 4.95 | –
35 | c1ccc(-c2cccc(CSc3nnc(-c4cc5c([nH]c6ccccc65)c(-c5ccccc5)n4)o3)c2)cc1 | 3.39 | –
36 | Brc1cccc(CSc2nnc(-c3cc4c([nH]c5ccccc54)c(-c4ccccc4)n3)o2)c1 | 8.47 | –
